The source made the active and inactive calls. No cut-off for these calls is given here.
Tests used:
[1] = test system: CCRF-CEM; experiment: Growth inhibition of human CCRF-CEM cells incubated for 72 hrs by CellTiter-Glo luminescent cell viability assay; assay type: functional
[2] = biological target: Ephrin type-A receptor 2 (Homo sapiens) (UniProt P29317); experiment: Inhibition of recombinant human GST-tagged EPHA2 cytoplasmic domain (560 to 976 residues) expressed in baculovirus expression system assessed as enzyme residual activity at 0.4 uM using tyrosine-01 peptide as substrate incubated for 60 mins by Z'-Lyte assay relative to control
[3] = biological target: Protein kinase C theta type (Homo sapiens) (UniProt Q04759); experiment: Inhibition of recombinant full length human His-tagged PRKCQ expressed in baculovirus expression system assessed as enzyme residual activity at 0.4 uM using fluorophore-labeled serine/threonine-7 peptide as substrate incubated for 60 mins by Z'-LYTE assay relative to control
Protein kinase C theta type (Homo sapiens), sequence (Q04759 whole entry, looked up, the tested form may be a part): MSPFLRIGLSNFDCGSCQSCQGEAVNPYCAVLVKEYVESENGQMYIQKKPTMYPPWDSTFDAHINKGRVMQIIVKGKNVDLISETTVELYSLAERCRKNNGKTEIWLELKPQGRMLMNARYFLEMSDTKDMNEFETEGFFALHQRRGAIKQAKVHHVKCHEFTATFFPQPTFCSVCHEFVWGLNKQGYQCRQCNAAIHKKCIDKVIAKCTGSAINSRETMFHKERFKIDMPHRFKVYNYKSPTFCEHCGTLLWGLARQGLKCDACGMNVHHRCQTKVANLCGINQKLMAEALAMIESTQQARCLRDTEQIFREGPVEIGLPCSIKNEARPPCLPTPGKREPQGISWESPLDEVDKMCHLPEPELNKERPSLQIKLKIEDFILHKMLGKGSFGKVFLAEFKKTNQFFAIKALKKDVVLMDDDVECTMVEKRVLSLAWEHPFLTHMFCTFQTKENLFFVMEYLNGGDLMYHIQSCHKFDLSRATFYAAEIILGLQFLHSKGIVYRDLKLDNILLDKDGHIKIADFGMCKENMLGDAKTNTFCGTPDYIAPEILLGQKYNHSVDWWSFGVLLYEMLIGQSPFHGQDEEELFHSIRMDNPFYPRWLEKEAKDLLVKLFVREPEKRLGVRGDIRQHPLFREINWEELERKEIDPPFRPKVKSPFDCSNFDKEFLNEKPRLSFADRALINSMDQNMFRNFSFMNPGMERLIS

[4] = biological target: T1, Tyrosine-protein kinase ITK/TSK (Homo sapiens) (UniProt Q08881); experiment: Inhibition of recombinant human N-terminal His6-tagged ITK (352 to 617 residues) expressed in baculovirus infected Sf21 insect cells assessed as ratio of Kinact to Ki using STK substrate by HTRF assay
T1 sequence (whole entry): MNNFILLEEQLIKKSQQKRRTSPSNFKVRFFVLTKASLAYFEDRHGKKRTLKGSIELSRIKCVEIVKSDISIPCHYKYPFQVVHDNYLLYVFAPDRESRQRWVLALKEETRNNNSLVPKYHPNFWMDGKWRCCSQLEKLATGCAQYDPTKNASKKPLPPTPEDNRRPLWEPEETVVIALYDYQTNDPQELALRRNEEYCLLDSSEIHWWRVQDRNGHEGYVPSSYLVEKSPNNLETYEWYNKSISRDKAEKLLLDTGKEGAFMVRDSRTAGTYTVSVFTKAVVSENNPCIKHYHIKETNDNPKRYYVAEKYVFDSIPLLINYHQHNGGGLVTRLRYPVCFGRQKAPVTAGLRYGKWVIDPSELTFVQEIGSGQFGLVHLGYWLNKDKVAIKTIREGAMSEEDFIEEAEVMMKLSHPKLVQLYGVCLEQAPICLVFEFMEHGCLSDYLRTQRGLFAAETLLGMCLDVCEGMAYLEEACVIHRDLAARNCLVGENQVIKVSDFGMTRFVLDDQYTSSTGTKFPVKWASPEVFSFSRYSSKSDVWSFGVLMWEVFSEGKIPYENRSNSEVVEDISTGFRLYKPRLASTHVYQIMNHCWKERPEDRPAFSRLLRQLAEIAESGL

[5] = biological target: Tyrosine-protein kinase Fyn (Homo sapiens) (UniProt P06241); experiment: Inhibition of recombinant full length C-terminal His-tagged human FYN cytoplasmic domain expressed in baculovirus expression system assessed as enzyme residual activity at 0.4 uM using fluorophore-labeled tyrosine-2 peptide as substrate by Z'-Lyte assay relative to control
[6] = biological target: T2, Tyrosine-protein kinase BTK (Homo sapiens, UniProt Q06187); experiment: Inhibition of BTK in human Ramos cells assessed as reduction in […] PLCgamma2 phosphorylation at 10 to 3000 nM preincubated for 2 hrs followed by […] addition and measured after 30 min by Western blot analysis; assay type: cell-based
T2 sequence (Q06187 whole entry, the tested form may be a part): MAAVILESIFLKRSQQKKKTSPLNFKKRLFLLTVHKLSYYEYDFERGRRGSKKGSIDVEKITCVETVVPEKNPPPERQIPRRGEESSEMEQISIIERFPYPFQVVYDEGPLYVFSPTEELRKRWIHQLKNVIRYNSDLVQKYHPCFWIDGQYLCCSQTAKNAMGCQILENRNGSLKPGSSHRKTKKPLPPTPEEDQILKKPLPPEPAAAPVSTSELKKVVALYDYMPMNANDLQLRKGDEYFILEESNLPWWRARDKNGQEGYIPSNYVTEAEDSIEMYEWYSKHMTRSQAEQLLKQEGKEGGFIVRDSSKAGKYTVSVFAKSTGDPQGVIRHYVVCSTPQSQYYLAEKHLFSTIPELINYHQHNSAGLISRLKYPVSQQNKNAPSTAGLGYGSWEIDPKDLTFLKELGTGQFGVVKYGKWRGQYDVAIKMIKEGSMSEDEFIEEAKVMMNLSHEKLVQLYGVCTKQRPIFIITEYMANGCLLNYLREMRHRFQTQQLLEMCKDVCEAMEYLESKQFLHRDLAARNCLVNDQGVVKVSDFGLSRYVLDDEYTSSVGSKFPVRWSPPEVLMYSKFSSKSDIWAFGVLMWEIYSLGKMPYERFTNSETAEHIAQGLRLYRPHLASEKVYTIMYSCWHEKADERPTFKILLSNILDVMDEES

[7] = biological target: cAMP-dependent protein kinase catalytic subunit alpha (Homo sapiens) (UniProt P17612); experiment: Inhibition of recombinant human His-tagged PRKACA catalytic domain (1 to 351 residues) expressed in Escherichia coli assessed as enzyme residual activity at 0.4 uM using fluorophore-labeled serine/threonine-1 peptide as substrate incubated for 60 mins by Z'-LYTE assay relative to control
[8] = biological target: Tyrosine-protein kinase Blk (Homo sapiens, UniProt P51451); experiment: Inhibition of recombinant full-length human His-tagged BLK cytoplasmic domain expressed in baculovirus expression system assessed as enzyme residual activity at 0.4 uM using fluorophore-labeled tyrosine-1 peptide as substrate incubated for 60 mins by Z'-LYTE assay relative to control
Tyrosine-protein kinase Blk, sequence (P51451 2-505 limits assumed): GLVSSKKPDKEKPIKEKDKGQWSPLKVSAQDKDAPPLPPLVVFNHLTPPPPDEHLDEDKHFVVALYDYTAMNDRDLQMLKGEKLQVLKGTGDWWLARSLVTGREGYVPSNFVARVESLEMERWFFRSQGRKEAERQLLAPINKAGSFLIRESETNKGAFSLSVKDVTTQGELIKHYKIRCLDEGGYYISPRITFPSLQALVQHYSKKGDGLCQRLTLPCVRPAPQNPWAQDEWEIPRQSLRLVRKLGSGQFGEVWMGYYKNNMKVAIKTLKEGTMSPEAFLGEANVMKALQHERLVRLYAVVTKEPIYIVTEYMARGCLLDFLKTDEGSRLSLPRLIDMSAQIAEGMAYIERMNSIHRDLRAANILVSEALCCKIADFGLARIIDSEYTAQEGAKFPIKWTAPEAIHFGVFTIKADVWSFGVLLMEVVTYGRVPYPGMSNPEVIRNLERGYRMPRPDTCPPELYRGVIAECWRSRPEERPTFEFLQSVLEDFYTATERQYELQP

[9] = biological target: T1, Tyrosine-protein kinase ITK/TSK (Homo sapiens); experiment: Inhibition of recombinant human N-terminal His6-tagged ITK (352 to 617 residues) expressed in baculovirus infected Sf21 insect cells assessed as inactivation rate constant using STK substrate by HTRF assay
[10] = biological target: Receptor-type tyrosine-protein kinase FLT3 (Homo sapiens) (UniProt P36888); experiment: Inhibition of recombinant human His-tagged FLT3 cytoplasmic domain (564 to 958 residues) expressed in baculovirus expression system assessed as enzyme residual activity at 0.4 uM using fluorophore-labeled tyrosine-2 peptide as substrate incubated for 60 mins by Z'-LYTE assay relative to control
Receptor-type tyrosine-protein kinase FLT3 (Homo sapiens), sequence (P36888 whole entry, the tested form may be a part): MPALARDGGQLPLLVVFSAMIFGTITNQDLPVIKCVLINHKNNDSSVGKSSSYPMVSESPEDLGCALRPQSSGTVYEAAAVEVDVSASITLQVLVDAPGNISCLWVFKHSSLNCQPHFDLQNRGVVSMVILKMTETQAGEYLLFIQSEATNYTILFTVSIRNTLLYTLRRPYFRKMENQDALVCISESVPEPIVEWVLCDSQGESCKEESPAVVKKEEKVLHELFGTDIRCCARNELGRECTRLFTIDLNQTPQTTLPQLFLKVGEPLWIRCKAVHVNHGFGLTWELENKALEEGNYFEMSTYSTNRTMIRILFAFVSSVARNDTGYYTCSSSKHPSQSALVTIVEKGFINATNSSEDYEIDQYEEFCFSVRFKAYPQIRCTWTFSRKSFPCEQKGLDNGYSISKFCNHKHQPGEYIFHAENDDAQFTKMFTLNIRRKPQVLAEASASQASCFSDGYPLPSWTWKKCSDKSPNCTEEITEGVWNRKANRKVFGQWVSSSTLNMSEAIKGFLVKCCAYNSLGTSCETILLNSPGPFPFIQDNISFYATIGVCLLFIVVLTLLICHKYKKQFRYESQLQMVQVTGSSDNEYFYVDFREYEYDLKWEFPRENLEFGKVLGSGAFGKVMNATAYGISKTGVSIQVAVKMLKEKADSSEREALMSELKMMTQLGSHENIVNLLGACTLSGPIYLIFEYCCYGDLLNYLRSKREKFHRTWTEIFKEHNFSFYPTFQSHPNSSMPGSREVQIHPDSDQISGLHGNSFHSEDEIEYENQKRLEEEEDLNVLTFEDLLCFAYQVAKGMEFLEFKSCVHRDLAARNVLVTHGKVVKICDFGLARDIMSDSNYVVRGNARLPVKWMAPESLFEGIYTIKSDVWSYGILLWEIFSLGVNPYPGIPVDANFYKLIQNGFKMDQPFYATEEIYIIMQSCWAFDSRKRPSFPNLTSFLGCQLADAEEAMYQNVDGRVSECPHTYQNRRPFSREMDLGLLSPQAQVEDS

[11] = biological target: Mitogen-activated protein kinase 3 (Homo sapiens) (UniProt P27361); experiment: Inhibition of recombinant full length human GST-tagged ERK1 expressed in Escherichia coli assessed as enzyme residual activity at 0.4 uM using fluorophore-labeled serine/threonine-3 peptide as substrate incubated for 60 mins by Z'-LYTE assay relative to control
Mitogen-activated protein kinase 3 (Homo sapiens), sequence (P27361 whole entry): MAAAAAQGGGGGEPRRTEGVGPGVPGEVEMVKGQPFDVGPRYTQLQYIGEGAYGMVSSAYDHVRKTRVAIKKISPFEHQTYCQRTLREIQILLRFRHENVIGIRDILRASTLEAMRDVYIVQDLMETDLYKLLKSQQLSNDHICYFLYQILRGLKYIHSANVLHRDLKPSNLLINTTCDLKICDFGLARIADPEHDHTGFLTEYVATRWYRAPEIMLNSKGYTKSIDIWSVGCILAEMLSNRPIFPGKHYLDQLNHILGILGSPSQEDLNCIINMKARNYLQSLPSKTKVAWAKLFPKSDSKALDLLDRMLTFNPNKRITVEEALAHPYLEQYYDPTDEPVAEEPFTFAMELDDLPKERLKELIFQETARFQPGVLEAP

[12] = test system: CCRF-CEM; experiment: Induction of apoptosis in human CCRF-CEM cells assessed as downregulation of caspase3 at 1 to 5 uM incubated for 24 hrs by Western blot analysis; assay type: functional, cell-based
[13] = biological target: Calcium/calmodulin-dependent protein kinase type IV (Homo sapiens) (UniProt Q16566); experiment: Inhibition of recombinant human full length GST-tagged CAMK4 expressed in Escherichia coli expression system assessed as enzyme residual activity at 0.4 uM using fluorophore-labeled serine/threonine-13 peptide as substrate incubated for 60 mins by Z'-LYTE assay relative to control
Calcium/calmodulin-dependent protein kinase type IV (Homo sapiens), sequence (Q16566 whole entry, the tested form may be a part): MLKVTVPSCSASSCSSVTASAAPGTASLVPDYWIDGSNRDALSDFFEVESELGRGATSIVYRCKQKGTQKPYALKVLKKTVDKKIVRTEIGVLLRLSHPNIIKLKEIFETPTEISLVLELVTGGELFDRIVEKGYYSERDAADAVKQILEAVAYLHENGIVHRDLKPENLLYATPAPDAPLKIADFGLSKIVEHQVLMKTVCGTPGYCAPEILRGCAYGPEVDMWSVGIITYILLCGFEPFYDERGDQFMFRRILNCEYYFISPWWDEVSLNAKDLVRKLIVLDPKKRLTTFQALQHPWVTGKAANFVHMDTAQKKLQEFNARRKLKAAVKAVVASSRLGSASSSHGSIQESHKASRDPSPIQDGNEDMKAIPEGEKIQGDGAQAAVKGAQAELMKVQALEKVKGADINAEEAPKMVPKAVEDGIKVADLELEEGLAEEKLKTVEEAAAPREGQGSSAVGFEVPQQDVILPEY

[14] = biological target: T1, Tyrosine-protein kinase ITK/TSK (Homo sapiens); experiment: Inhibition of recombinant full-length human GST-tagged ITK cytoplasmic domain expressed in baculovirus expression system assessed as enzyme residual activity at 0.4 uM using fluorophore-labeled tyrosine-1 peptide as substrate incubated for 60 mins by Z'-LYTE assay relative to control
[15] = biological target: Epidermal growth factor receptor (Homo sapiens, UniProt P00533); experiment: Inhibition of recombinant human N-terminal GST-tagged EGFR kinase domain (696 to end residues) expressed in baculovirus infected Sf21 insect cells using STK as substrate by HTRF assay
Epidermal growth factor receptor, sequence (P00533 whole entry, the tested form may be a part): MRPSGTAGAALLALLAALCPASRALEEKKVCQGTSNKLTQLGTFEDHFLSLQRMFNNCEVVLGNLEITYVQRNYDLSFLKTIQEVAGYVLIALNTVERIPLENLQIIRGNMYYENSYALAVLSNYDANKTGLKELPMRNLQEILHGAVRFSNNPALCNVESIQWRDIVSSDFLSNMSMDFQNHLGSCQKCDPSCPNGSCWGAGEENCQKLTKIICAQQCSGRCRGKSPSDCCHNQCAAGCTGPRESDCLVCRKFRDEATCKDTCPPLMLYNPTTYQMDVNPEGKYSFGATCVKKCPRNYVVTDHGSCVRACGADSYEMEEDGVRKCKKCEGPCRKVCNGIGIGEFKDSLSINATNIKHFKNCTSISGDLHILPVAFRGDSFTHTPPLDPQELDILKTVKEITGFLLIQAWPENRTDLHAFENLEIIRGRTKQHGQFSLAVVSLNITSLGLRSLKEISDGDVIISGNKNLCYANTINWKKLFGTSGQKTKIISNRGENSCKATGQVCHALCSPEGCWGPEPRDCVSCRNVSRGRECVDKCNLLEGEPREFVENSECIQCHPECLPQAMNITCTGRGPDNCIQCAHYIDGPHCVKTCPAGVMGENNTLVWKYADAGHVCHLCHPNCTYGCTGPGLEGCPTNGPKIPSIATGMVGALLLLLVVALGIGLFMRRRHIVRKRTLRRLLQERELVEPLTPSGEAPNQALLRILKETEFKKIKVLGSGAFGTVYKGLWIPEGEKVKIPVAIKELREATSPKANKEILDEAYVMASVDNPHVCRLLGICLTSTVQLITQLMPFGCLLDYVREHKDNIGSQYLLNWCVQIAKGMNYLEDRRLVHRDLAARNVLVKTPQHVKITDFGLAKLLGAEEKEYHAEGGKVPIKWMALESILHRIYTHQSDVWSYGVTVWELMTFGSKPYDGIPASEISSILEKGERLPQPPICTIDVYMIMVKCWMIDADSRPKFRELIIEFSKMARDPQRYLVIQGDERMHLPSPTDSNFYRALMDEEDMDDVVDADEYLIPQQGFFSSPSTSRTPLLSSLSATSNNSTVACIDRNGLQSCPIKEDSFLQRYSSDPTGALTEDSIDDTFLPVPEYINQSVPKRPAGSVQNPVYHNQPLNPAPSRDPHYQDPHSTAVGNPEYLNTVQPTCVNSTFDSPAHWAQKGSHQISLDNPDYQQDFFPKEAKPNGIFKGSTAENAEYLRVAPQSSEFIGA

[16] = test system: CCRF-CEM; experiment: Induction of apoptosis in human CCRF-CEM cells assessed as downregulation of PARP at 1 to 5 uM incubated for 24 hrs by Western blot analysis; assay type: functional, cell-based
[17] = test system: Jurkat; experiment: Induction of apoptosis in human Jurkat cells assessed as upregulation of cleaved PARP at 1 to 20 uM incubated for 24 hrs by Western blot analysis; assay type: functional, cell-based
[18] = test system: H9; experiment: Growth inhibition of human H9 cells incubated for 72 hrs by CellTiter-Glo luminescent cell viability assay; assay type: functional; conditions: H9, 72 h
[19] = biological target: T2, Tyrosine-protein kinase BTK; experiment: Inhibition of recombinant full length human His-tagged BTK cytoplasmic domain expressed in baculovirus expression system assessed as enzyme residual activity at 0.4 uM using fluorophore-labeled tyrosine-1 peptide as substrate incubated for 60 mins by Z'-LYTE assay relative to control
[20] = test system: MOLT-4; experiment: Growth inhibition of human MOLT4 cells incubated for 72 hrs by CellTiter-Glo luminescent cell viability assay; assay type: functional; conditions: MOLT-4, 72 h
[21] = species: Homo sapiens; experiment: Selectivity ratio of IC50 for recombinant human N-terminal GST-tagged EGFR kinase domain (696 to end residues) expressed in baculovirus infected Sf21 insect cells to IC50 for recombinant human N-terminal His6-tagged ITK (352 to 617 residues) expressed in baculovirus infected Sf21 insect cells

GI50 [1]: 0.127 µM | Activity [2]: 95% | Activity [3]: 89% | Ratio [4]: 101 ×10³ /M.s | Activity [5]: 21% | inhibition [6]: inactive | Activity [7]: 86% | Activity [8]: 9% | K [9]: 0.038 min⁻¹ | Activity [10]: 2.3% | Activity [11]: 98.7% | Activity [13]: 107% | Activity [14]: 1% | IC50 [15]: 1.26 µM | Activity [19]: 41.3% | GI50 [20]: 0.167 µM
SMILES: C=CC(=O)N1CCC(Oc2nc(Nc3ccc(N4CCOCC4)cc3)nc3[nH]cc(-c4cncc(NC)n4)c23)CC1
Activity [12]: Active | Activity [16]: Active | Activity [17]: Active | GI50 [18]: 0.232 µM | Ratio IC50 [21]: 250
